Experimental data: patent US9579406B2, “Phospholipid ether analogs as agents for detecting and locating cancer, and methods thereof” (Cellectar, Inc., priority 2004, dated 2017)
“Also recorded” adds a separate entry of the source. Where two headings read alike, the source gives them in different places.

How the values were obtained:
MAT LyLu cells = test: Gamma camera scintigraphy in rat Dunning R3327 (MAT LyLu) prostate cancer model; details: tumor-bearing rats, 24 and 48 hours post injection
Text: The MatLyLu (Dunning R3327 rat) model, a rat prostate tumor line, was used specifically to screen 9 specific analogs prior to entering them into control for dosimetry and tumor-bearing animals for determining tumor/background ratios.
In order to expedite the screening process and minimize the number of tumor bearing animals utilized in multiple time point tissue distribution studies, new radioiodinated homologs were imaged by gamma camera scintigraphy in the rat Dunning R3337 (MAT LyLu strain) prostate cancer model. […] Gamma camera images were obtained at multiple time points including 24 and 48 hours post injection.
The new PLE analogs were synthesized and radiolabeled with ^125I for initial image analysis in Copenhagen rats bearing Dunning R3327 prostate tumors.

Phospholipase C (PLC) = biological target: T1, Phospholipase C (PLC) (Bacillus cereus, UniProt P09598); test: PLC substrate assay; assay type: biochemical
T1 construct: PLC isolated from Bacillus cereus; host or cells: Bacillus cereus (natural source)
Protocol: Formal metabolism studies were conducted on several PLE analogs including NM324, the predecessor of NM404. In these studies, each agent was examined to determine their ability to serve as substrates for enzymes associated with PLE metabolism. Three major enzymatic pathways are involved in the metabolism of PLE. O-Alkyl glycerol monooxygenase (AGMO) is responsible for cleavage of the alkyl ether linkage at C-1 to form either the long chain fatty alcohol or subsequently, the corresponding fatty acid. Phospholipases C (PLC) and D (PLD), on the other hand, give rise to the glycerol or phosphatidic acid products, respectively.

[1] = cited from earlier work
serum proteins = details: cited from earlier work
[2] = mouse; cited from earlier work
[3] = test system: carrageenan-induced granulomas; test: Uptake in carrageenan-induced granulomas; set-up: species or system rats; details: rat, in vivo
Text: This lack of specificity is a significant clinical issue in patients with cancer.

[4] = rats, cited from earlier work
[5] = test system: several animal tumor models; test: Animal tumor localization studies with first generation PLE analogs; assay type: in vivo; details: iodine-125 labeled; Walker 256, Lewis mammary, Dunning R3327, Vx2, human xenografts
Text: Phospholipid ethers can easily be labeled with iodine radioisotopes using radiolabeling methods developed in the labs. The iodophenyl phospholipid ether analogs are specifically designed so that the radioiodine affixed to each molecule is stable to facile in vivo deiodination. […] The inventors have now synthesized over 20 radiolabeled PLE compounds and tested in vitro and in vivo. […] Optimal tumor localization of these agents takes from one to several days due to the more rapid clearance of the radioactivity from normal tissues relative to tumor.

[6] = MIRD extrapolation of rat tissue distribution data to permissible human dose; set-up: species or system human (from rat data)
Text: Accordingly the inventors have conducted the preliminary pharmacokinetic studies in human lung cancer patients at 1 mCi. Similar extrapolative calculation of the dosimetry for ^124I-NM404 afforded a similar 2 mCi dose level again based on projected dosimetry to the adrenals and bladder wall. Preliminary human data (5 patients), however, indicate very little uptake and retention of the agent into any abdominal organ (including the bladder and adrenals) with the exception of the liver which returns to background levels within 11 days.
Dosing of radioiodinated ^124I NM404 will be based on MIRD extrapolation of the iodine-131 dosimetry data derived from this ongoing study. The ^131I-NM404 dose is currently calculated as follows: Animal biodistribution data is used to determine the percentage of injected dose/organ at varying time points. These animal data are extrapolated to man by means of MIRD formalism (MIRDOSE PC v3.1) using standard conversion factors for differences in organ mass and anatomy between rat and standard man, providing predicted human organ doses; Based on these predicted doses, the permissible mCi dose to be injected into humans is determined using the maximal doses legally permitted by RDRC regulations for specific human tissue as defined in the Federal Register (21CFR Part 361.1) e.g. whole body, blood, blood forming tissues, eye lens, gonads—3 rem/dose; any other tissue—5 rem/dose. This approach was previously used to bring both NM324 and NM404 to clinical use, resulting in a calculated dose of 1 mCi.

lung cancer = test: Initial clinical studies of NM-324 in lung cancer patients; assay type: in vivo, human; details: for liver radioactivity in patients: human, in vivo; for tumor uptake in cancer patients: scintigraphy
[7] = Blood plasma kinetics in rats; assay type: in vivo; details: rat, read-out: elimination half life time in plasma (converted)
rat mammary tumor = test: Biodistribution in rat mammary tumor model; assay type: in vivo
Protocol: In one such example in a rat mammary tumor model, tumor-to-normal tissue ratios reached a maximum at 96 hours with a tumor-to-blood ratio of 8.6 and tumor-to-muscle ratio of 20:1.
Extensive biodistribution data for the prototype agent ^125I-NM324 in several tumor models has previously been reported. […] For example, in a rat mammary tumor model, tumor-to-normal tissue ratios reached a maximum at 96 hours with a tumor-to-blood ratio of 8.6 and tumor-to-muscle ratio of 20:1. […] Comparative biodistribution data for NM324 and NM404 in SCID mice have been obtained in prostate and A549 lung cancer tumor models.

[8] = test system: Walker-256 carcinosarcoma; test: Tissue distribution of radioactivity in rats bearing Walker-256 carcinosarcoma; assay type: in vivo, rat
[9] = test system: A549 lung, PC-3 prostate, c-myc pancreatic tumors; test: microPET imaging in lung, prostate and pancreatic mouse tumor models; assay type: in vivo; details: any time point
Text: Human pharmacokinetic studies have confirmed this finding as only 4% of the agent is cleared renally within 4 days of iv injection (majority is excreted via GI route).

CNS-1 glioma brain tumor = test: microPET imaging in rat CNS-1 brain tumor model; assay type: in vivo; details: 24 h after iv injection
Protocol: The inventors recently successfully radiolabeled NM404 twice with iodine-124 from a commercial vendor (Eastern Isotopes). The radiochemical yield (>60% mean isolated yield, >99% purity) was very similar to what we usually obtain with commercial sources of iodine-125 or 131 sodium iodide. The PET imaging characteristics of ^124I-NM404 in a rat CNS-1 brain tumor model (FIG. 24) was investigated. Imaging times in this preliminary study were limited to 24 h and 4 days post injection due to microPET scanner availability. […] These compounds may then be used for extending NM404 PET utility into human cancer patients.

[10] = test system: non-small cell lung cancer; details: human, in vivo
Protocol: (§1) The preparation dispensed by the Nuclear Pharmacy will be certified as sterile and pyrogen-free. The subject will be monitored for adverse reactions during and after the infusion. Vital signs will be checked immediately after the infusion, and at 60 minute intervals up to four hours post-injection. They will be observed for adverse events throughout this time. […] Vital signs will be monitored at these times. Any adverse reactions experienced by the subjects will be recorded.

[11] = test system: non-small cell lung cancer; test: Planar gamma-camera scintigraphy with 131I-NM-404 in NSCLC patients; details: <1 mCi, n=3
Protocol: as §1

[12] = assay type: in vivo, human

T1 sequence (P09598 39-283 limits assumed): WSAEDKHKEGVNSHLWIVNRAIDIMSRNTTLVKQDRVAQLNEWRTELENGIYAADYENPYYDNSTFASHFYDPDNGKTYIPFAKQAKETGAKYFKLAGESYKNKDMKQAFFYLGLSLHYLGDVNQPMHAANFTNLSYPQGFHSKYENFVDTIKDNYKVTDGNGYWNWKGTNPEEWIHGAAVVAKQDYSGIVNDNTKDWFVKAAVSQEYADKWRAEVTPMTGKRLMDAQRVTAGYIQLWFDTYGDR

Structure (SMILES): COC(COCCCCCCCCCCCCCCCCCCc1ccc(I)cc1)COP(=O)([O-])OCC[N+](C)(C)C (racemic) [NM-410, 1-O-[18-(p-Iodophenyl)octadecyl]-2-O-methyl-rac-glycero-3-phosphocholine]
- tumor uptake and liver/abdominal radioactivity by gamma camera imaging (MAT LyLu cells): high hepatic uptake, significant abdominal accumulation and retention or poor tumor uptake and retention; also recorded: high radioactivity levels in the liver and abdomen with little to no uptake of the agent into tumors
- tumor uptake and liver/abdominal radioactivity by gamma camera imaging (MAT LyLu cells; listed as 10): retarded tumor uptake significantly

Structure (SMILES): [3H]C(CCCCCC)C([3H])CCCCCCCC(=O)O[C@H](COC(=O)CCCCCCCCCCCCCCC)COP(=O)([O-])OCC[N+](C)(C)C (stereo partly drawn) [DPPC, 1-palmitoyl-2-[3H]-palmitoyl-L-3-phosphatidylcholine]
- hydrolysis by PLC (Phospholipase C (PLC)): underwent significant hydrolysis

Structure (SMILES): CCCCCCCCCCCCCCCCCCOCC(COP(=O)([O-])OCC[N+](C)(C)C)OC (stereo not drawn) [ET-18-OCH3]
- maximum tolerated dose ([1]; intravenous): 50 mg/kg
- adverse effects reported ([1]; up to 4 hours post-injection): pulmonary edema impaired hepatic function and hemolysis
- ether lipid bound to HDL (serum proteins): about 6%
- ether lipid bound to albumin (serum proteins): 71%
- LD50 (oral) [2]: 200 mg/kg

Structure (SMILES): O=C([O-])CC(O)(CC(=O)[O-])C(=O)[O-].[Ga+3] [Gallium citrate, reference compound]
- uptake and retention in granulomas [3]: did indeed concentrate significantly in the granulomatous lesions

Structure (SMILES): CCCCCCCCCCCCCCCCOP(=O)([O-])OCC[N+](C)(C)C [Miltefosine, hexadecyl phosphocholine]
- maximum tolerated dose ([4]; over a 4-week period): 39 nmol/kg
- LD50 [4]: 606 nmol/kg

Structure (SMILES): COC(COCCCCCCCCCCCCc1cccc([125I])c1)COP(=O)([O-])OCC[N+](C)(C)C (stereo not drawn) [NM-294]
- tumor localization [5]: selectively localized in tumors over time

Structure (SMILES): C[N+](C)(C)CCOP(=O)([O-])OCCCCCCCCCCCCc1cccc(I)c1 [NM-324, 12-(3-iodophenyl)-dodecylphosphocholine]
- calculated dose for clinical use [6]: 1 mCi
- liver radioactivity in patients (lung cancer): high liver radioactivity
- liver radioactivity in patients (lung cancer; listed as NM324): unacceptable accumulation in liver tissue
- lung tumor uptake (lung cancer; images 6 h post injection, lung cancer patient): intense lung tumor uptake
- tumor uptake in cancer patients (lung cancer): excellent tumor uptake
- tumor uptake in cancer patients (lung cancer; listed as 131I-NM-324): Uptake is seen in the left lingular lung cancer (T) with increasing tumor-to-background ratios over time
- tumor localization [5]: selectively localized in tumors over time
- half-life [7]: 2.43 h
- uptake and retention in granulomas [3]: no uptake and retention
- tumor-to-blood ratio (rat mammary tumor; 96 hours): 8.6
- time of maximum tumor-to-normal tissue ratios (rat mammary tumor; rat, in vivo): 96 h

Structure (SMILES): C[N+](C)(C)CCOP(=O)([O-])OCCCCCCCCCCCCc1ccc(I)cc1 [NM-346]
- tumor uptake and liver/abdominal radioactivity by gamma camera imaging (MAT LyLu cells): readily visualized

Structure (SMILES): C[N+](C)(C)CCOP(=O)([O-])OCCCCCCCc1ccc(I)cc1 [NM-396]
- radioactivity in all of the organs surveyed ([8]; 24 hours): < 0.10 % ID/g
- radioactivity in the thyroid ([8]; 24 hours): 213 % ID/g
- localization in tumor tissue ([8]; all time points examined): did not localize in tumor tissue at any of the time points examined

Structure (SMILES): C[N+](C)(C)CCOP(=O)([O-])OCCCCCCCCCCCCCCCc1ccc(I)cc1 [NM-397]
- increase in tumor uptake versus C12 analog 4 ([8]; 24 h): 2 fold
- radioactivity in the duodenum (maximum) ([8]; 48 hours after administration): 1.38±0.24 % ID/g
- radioactivity in the tumor (peak) ([8]; 48 hours after administration): 1.65±0.23 % of ID/g
- blood levels ([8]; 120 hours): 0.07±0.00 % of ID/g
- time of peak tumor radioactivity ([8]; after administration): 48 h
- tumor uptake and liver/abdominal radioactivity by gamma camera imaging (MAT LyLu cells): readily visualized

Structure (SMILES): C[N+](C)(C)CCOP(=O)([O-])OCCCOCCCCCCCCCCCCCCCCCCc1ccc(I)cc1 [NM-412, 1-O-[18-(p-Iodophenyl)octadecyl]-1,3-propanediol-3-phosphocholine]
- tumor uptake and liver/abdominal radioactivity by gamma camera imaging (MAT LyLu cells): high levels of liver and abdominal radioactivity; also recorded: tumor uptake accompanied by high liver and abdominal radioactivity levels
- tumor uptake and liver/abdominal radioactivity by gamma camera imaging (MAT LyLu cells; listed as 8): fairly high levels of liver and abdominal radioactivity

Structure (SMILES): C[N+](C)(C)CCOP(=O)([O-])OCCCCCCCCCCCCCCCCCCc1ccc([124I])cc1 [^124I-NM404]
- dose level based on projected dosimetry to the adrenals and bladder wall ([6]; 124I label): 2 mCi
- bladder activity [9]: lack of bladder activity at any time point; also recorded: No bladder activity was evident at any time point
- tracer uptake in brain tumor and surrounding brain (CNS-1 glioma brain tumor): intense uptake of the tracer in the brain tumor accompanied by little or no uptake in surrounding intact brain tissue

Structure (SMILES): C[N+](C)(C)CCOP(=O)([O-])OCCCCCCCCCCCCCCCCCCc1ccc([131I])cc1 [^131I-NM404]
- starting maximum dose [6]: around 1.9 mCi
- 5 Rad limiting dose to the adrenals and bladder wall ([6]; 131I label): 2 mCi
- crossing of the blood brain barrier [10]: doesn't cross the intact blood brain barrier
- tumor uptake and retention [11]: tumor uptake and prolonged retention in the primary lung tumors
- time for liver to return to background levels ([12]; 5 patients): ≤ 11 days
- dose level safe to administer ([12]; advanced non-small cell lung cancer subjects): 0.0003 mg/kg
- safety ([12]; first-in-human pharmacokinetic studies): safe
